Results from patent US20260262643A1, “HERBICIDAL BENZOXAZINES” (FMC CORPORATION, priority 2022, published 2026).

Experiments:
soybean [1] = assay: Test C preemergence; type: in vivo, Glycine max; conditions: preemergence, 0 to 100 scale (0 no effect, 100 complete control)
From the text: (§1) Seeds of plant species selected from barnyardgrass (Echinochloa crusgalli), blackgrass (Alopecurus myosuroides), corn (Zea mays), foxtail, giant (giant foxtail, Setaria faberi), green foxtail (Setaria viridis), goosegrass (Eleusine indica), kochia (Bassia scoparia), oat, wild (wild oat, Avena fatua), pigweed, palmer (palmer amaranth, palmer pigweed, Amaranthus palmeri), Pigweed, Redroot (redroot pigweed, Amaranthus retroflexus), ragweed (common ragweed, Ambrosia artemisiifolia), ryegrass, Italian ([…] ryegrass, Lolium multiflorum), soybean (Glycine max), and wheat (Triticum aestivum) were planted into a blend of loam soil and sand and treated preemergence with a directed soil spray using test chemicals formulated in a non-phytotoxic solvent mixture which included a surfactant. At the same time, plants selected from these crops and weed species and also galium (catchweed bedstraw, Galium aparine) and horseweed (Erigeron canadensis) were planted in pots containing the same blend of loam soil and sand and treated with postemergence applications of test chemicals formulated in the same manner. Plants ranged in height from 2 to 10 cm and were in the one- to two-leaf stage for the postemergence treatment. Treated plants and untreated controls were maintained in a greenhouse for 10 days, after which time all treated plants were compared to untreated controls and visually evaluated for injury. Plant response ratings, summarized in Table C, are based on a 0 to 100 scale where 0 is no effect and 100 is complete control. A dash (-) response means no test result.

soybean [2] = assay: Test C postemergence; type: in vivo, Glycine max; conditions: postemergence, 10 days
From the text: as §1

pigweed, palmer [3] = assay: Test C postemergence; type: in vivo, Amaranthus palmeri; conditions: postemergence, 10 days
Summary of the method: (§2)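 Visual injury ratings on a 0–100 scale (100 = complete control) were made against untreated controls 10 days after treatment in the greenhouse. Compounds, formulated with surfactant in non-phytotoxic solvent, were sprayed on soil preemergence or onto one- to two-leaf plants 2–10 cm tall postemergence.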

kochia [4] = assay: Test C preemergence; type: in vivo, Bassia scoparia; conditions: preemergence, 0 to 100 scale (0 no effect, 100 complete control)
Summary of the method: as §2

galium = assay: Test C postemergence; type: in vivo, Galium aparine; conditions: postemergence, 10 days
Summary of the method: as §2

green foxtail [5] = assay: Test C preemergence; type: in vivo, Setaria viridis; conditions: preemergence, 0 to 100 scale (0 no effect, 100 complete control)
Summary of the method: as §2

ryegrass, Italian [6] = assay: Test C preemergence; type: in vivo, Lolium multiflorum; conditions: preemergence, 0 to 100 scale (0 no effect, 100 complete control)
Summary of the method: as §2

kochia [7] = assay: Test C postemergence; type: in vivo, Bassia scoparia; conditions: postemergence, 10 days
Summary of the method: as §2

ragweed [8] = assay: Test C postemergence; type: in vivo, Ambrosia artemisiifolia; conditions: postemergence, 10 days
Summary of the method: as §2

wheat [9] = assay: Test C preemergence; type: in vivo, Triticum aestivum; conditions: preemergence, 0 to 100 scale (0 no effect, 100 complete control)
From the text: as §1

pigweed, palmer [10] = assay: Test C preemergence; type: in vivo, Amaranthus palmeri; conditions: preemergence, 0 to 100 scale (0 no effect, 100 complete control)
Summary of the method: as §2

blackgrass [11] = assay: Test C preemergence; type: in vivo, Alopecurus myosuroides; conditions: preemergence, 0 to 100 scale (0 no effect, 100 complete control)
Summary of the method: as §2

corn [12] = assay: Test C postemergence; type: in vivo, Zea mays; conditions: postemergence, 10 days
Summary of the method: as §2

oat, wild [13] = assay: Test C postemergence; type: in vivo, Avena fatua; conditions: postemergence, 10 days
From the text: as §1

oat, wild [14] = assay: Test C preemergence; type: in vivo, Avena fatua; conditions: preemergence, 0 to 100 scale (0 no effect, 100 complete control)
From the text: as §1

ryegrass, Italian [15] = assay: Test C postemergence; type: in vivo, Lolium multiflorum; conditions: postemergence, 10 days
Summary of the method: as §2

blackgrass [16] = assay: Test C postemergence; type: in vivo, Alopecurus myosuroides; conditions: postemergence, 10 days
Summary of the method: as §2

green foxtail [17] = assay: Test C postemergence; type: in vivo, Setaria viridis; conditions: postemergence, 10 days
Summary of the method: as §2

barnyardgrass [18] = assay: Test C postemergence; type: in vivo, Echinochloa crusgalli; conditions: postemergence, 10 days
Summary of the method: as §2

corn [19] = assay: Test C preemergence; type: in vivo, Zea mays; conditions: preemergence, 0 to 100 scale (0 no effect, 100 complete control)
Summary of the method: as §2

barnyardgrass [20] = assay: Test C preemergence; type: in vivo, Echinochloa crusgalli; conditions: preemergence, 0 to 100 scale (0 no effect, 100 complete control)
Summary of the method: as §2

wheat [21] = assay: Test C postemergence; type: in vivo, Triticum aestivum; conditions: postemergence, 10 days
From the text: as §1

ragweed [22] = assay: Test C preemergence; type: in vivo, Ambrosia artemisiifolia; conditions: preemergence, 0 to 100 scale (0 no effect, 100 complete control)
Summary of the method: as §2

horseweed = assay: Test C postemergence; type: in vivo, Erigeron canadensis; conditions: postemergence, 10 days
Summary of the method: as §2

[23] = 125 g ai/ha, 0 to 100 scale, 0 no effect, 100 complete control
[24] = 500 g ai/ha, 0 to 100 scale (0 no effect, 100 complete control)

COC(=O)N(C)c1ncn(-c2cccc(C(=O)N3C[C@H](C)Oc4c(C)cccc43)c2)n1 [30 0]
Soybean plant response rating (soybean [1]; 500 g ai/ha): 20
Soybean plant response rating (soybean [1]; Test C, 125 g ai/ha): 0
Plant response rating, Soybean (soybean [2]; [23]): 70
Plant response rating, Soybean (soybean [2]; [24]): 100
Plant response rating, Pigweed, Palmer (pigweed, palmer [3]; [23]): 30
Plant response rating, Pigweed, Palmer (pigweed, palmer [3]; [24]): 40
Kochia plant response rating (kochia [4]; 500 g ai/ha): 70
Kochia plant response rating (kochia [4]; Test C, 125 g ai/ha): 50
Plant response rating, Galium (galium; [23]): 60
Plant response rating, Galium (galium; [24]): 90
Foxtail, Green plant response rating (green foxtail [5]; 500 g ai/ha): 100
Foxtail, Green plant response rating (green foxtail [5]; Test C, 125 g ai/ha): 80
Ryegrass, Italian plant response rating (ryegrass, Italian [6]; 500 g ai/ha): 80
Ryegrass, Italian plant response rating (ryegrass, Italian [6]; Test C, 125 g ai/ha): 60
Plant response rating, Kochia (kochia [7]; [23]): 50
Plant response rating, Kochia (kochia [7]; [24]): 60
Plant response rating, Ragweed (ragweed [8]; [23]): 0
Plant response rating, Ragweed (ragweed [8]; [24]): 50
Wheat plant response rating (wheat [9]; 500 g ai/ha): 20
Wheat plant response rating (wheat [9]; Test C, 125 g ai/ha): 0
Pigweed, Palmer plant response rating (pigweed, palmer [10]; 500 g ai/ha): 80
Pigweed, Palmer plant response rating (pigweed, palmer [10]; Test C, 125 g ai/ha): 20
Blackgrass plant response rating (blackgrass [11]; 500 g ai/ha): 20
Blackgrass plant response rating (blackgrass [11]; Test C, 125 g ai/ha): 0
Plant response rating, Corn (corn [12]; [23]): 0
Plant response rating, Corn (corn [12]; [24]): 70
Plant response rating, Oat, Wild (oat, wild [13]; [23]): 0
Plant response rating, Oat, Wild (oat, wild [13]; [24]): 40
Oat, Wild plant response rating (oat, wild [14]; 500 g ai/ha): 30
Oat, Wild plant response rating (oat, wild [14]; Test C, 125 g ai/ha): 20
Plant response rating, Ryegrass, Italian (ryegrass, Italian [15]; [23]): 10
Plant response rating, Ryegrass, Italian (ryegrass, Italian [15]; [24]): 80
Plant response rating, Blackgrass (blackgrass [16]; [23]): 0
Plant response rating, Blackgrass (blackgrass [16]; [24]): 80
Plant response rating, Foxtail, Green (green foxtail [17]; [23]): 10
Plant response rating, Foxtail, Green (green foxtail [17]; [24]): 50
Plant response rating, Barnyardgrass (barnyardgrass [18]; [23]): 10
Plant response rating, Barnyardgrass (barnyardgrass [18]; [24]): 50
Corn plant response rating (corn [19]; 500 g ai/ha): 10
Corn plant response rating (corn [19]; Test C, 125 g ai/ha): 0
Barnyardgrass plant response rating (barnyardgrass [20]; 500 g ai/ha): 50
Barnyardgrass plant response rating (barnyardgrass [20]; Test C, 125 g ai/ha): 0
Plant response rating, Wheat (wheat [21]; [23]): 10
Plant response rating, Wheat (wheat [21]; [24]): 30
Ragweed plant response rating (ragweed [22]; 500 g ai/ha): 20
Ragweed plant response rating (ragweed [22]; Test C, 125 g ai/ha): 0
Plant response rating, Horseweed (horseweed; [23]): 30
Plant response rating, Horseweed (horseweed; [24]): 30
